The nature of data set [1]: Liver Microsomal Clearance Assay, mouse. Type of data set: in vitro ADME. The following applies: extraction ratio, mouse liver microsomes. As to the method:
(§1) Liver Microsomal Clearance Assay
(§2) The in vitro microsomal clearance assay is designed to assess potential risks associated with hepatic metabolic stability of compounds. The test compound (1 μM) was incubated with liver microsomes (0.5 mg/mL) from different species (mouse, rat, monkey, dog and human) and NADPH (1 mM) in 100 mM potassium phosphate buffer at 37° C. At specific reaction time points (0, 5, 10 and 30 minutes), reaction aliquots were removed and reactions were terminated by addition of ice cold acetonitrile containing mass spectrometry internal standard. The samples were centrifuged and the supernatants were analyzed by LC-MS/MS. In vitro metabolic half-life (t1/2, min) and intrinsic clearance (CLint, μL/min/mg) are based on the rate and extent of metabolism of the test compound as determined by the disappearance of the parent compound from the reaction mixture. These values may be scaled to predict hepatic metabolic clearance rate (CLh, mL/min/kg) and extraction ratio (ER, expressed as a ratio of the predicted hepatic metabolic clearance to hepatic blood flow in that species). In general, compounds with high predicted CLint or ER in vitro are considered to be at high risk for exposure-limiting metabolism in vivo.

The nature of data set [2]: Liver Microsomal Clearance Assay, human. The class given is in vitro ADME. The following applies: extraction ratio, human liver microsomes. As to the method: as §1, §2
On the technique in general: Liver microsomes are vesicles of endoplasmic reticulum, rich in cytochrome P450 enzymes.

Data set [3] in a line: In Vivo Pharmacokinetics Assay in mouse. The following applies: male, Balb/c, plasma; for clearance at 24 h: IV 2 mg/kg. As to the method:
Full pharmacokinetics study: Male Balb/c mice (n=3, body weights 22-25 g) or male Wistar rats (n=3, body weights 250-300 g) were administered the test compound intravenously via the lateral tail vein or orally via gavage. The formulation was typically a 2.5 mg/mL solution of the compound in 75% PEG300 and 25% D5W. Six blood samples of 50 μL each were collected serially for 24 h after dosing. The blood samples were centrifuged to separate the plasma. Plasma samples were analyzed and quantified by LC-MS/MS.
Rapid pharmacokinetics study: Male Balb/c mice (n=3, body weights 22-25 g) or male Wistar rats (n=3, body weights 250-300 g) were administered the test compound intravenously (IV) via the lateral tail vein or orally (PO) via gavage. The formulation was typically a 2.5 mg/mL solution of the compound in 75% PEG300 and 25% D5W. Six blood samples of 50 μL each were collected serially for 24 h after dosing. Blood samples were centrifuged and plasma separated and pooled across the three animals at each time point per dose route. Plasma samples were analyzed and quantified by LC-MS/MS.
For both full and rapid pharmacokinetics studies, the following parameters were calculated by non-compartmental regression analysis using Winnonlin 5.0 software (Pharsight, Mountain View, Calif., USA): plasma clearance (Cl), plasma maximum concentration (Cmax), plasma area-under-the-concentration-time-curve (AUC0-inf), and percent oral bioavailability (F %).

A further data set concerns the target B-Raf V600E (Homo sapiens (Human), UniProt P15056, V600E). Briefly: B-Raf V600E/Mek Amplified Luminescence Proximity Homogeneous Assay (B-Raf V600E biochemical). Conditions: read-out: BRAF V600E biochemical IC50. As to the method: The plate was incubated for 60 minutes at room temperature.
The B-Raf kinase activity reaction was started by the addition of 10 μl per well of 2×ATP (10 μM) diluted in assay buffer. After 3 hours, the reactions were stopped with the addition of 10 μl of stop reagent (60 mM EDTA, 0.01% Tween20). Phosphorylated product was measured using a rabbit anti-p-MEK (Cell Signaling, #9121) antibody and the Alpha Screen IgG (ProteinA) detection Kit (PerkinElmer #6760617R), by the addition of 30 μl to the well of a mixture of the antibody (1:2000 dilution) and detection beads (1:1000 dilution of both beads) in bead buffer (50 mM Tris, pH 7.5, 0.01% Tween20). The additions were carried out under dark conditions to protect the detection beads from light. A lid was placed on top of the plate and the plate was incubated for 1 hour at room temperature. The luminescence was read on a PerkinElmer Envision instrument. The concentration of each compound for 50% inhibition (IC50) was calculated by non-linear regression using XL Fit data analysis software.

[4] abbreviates: 5 mg/kg, PO/IV 5/2 mg/kg, n = 1.

Sequence of B-Raf V600E (P15056 whole entry V600E): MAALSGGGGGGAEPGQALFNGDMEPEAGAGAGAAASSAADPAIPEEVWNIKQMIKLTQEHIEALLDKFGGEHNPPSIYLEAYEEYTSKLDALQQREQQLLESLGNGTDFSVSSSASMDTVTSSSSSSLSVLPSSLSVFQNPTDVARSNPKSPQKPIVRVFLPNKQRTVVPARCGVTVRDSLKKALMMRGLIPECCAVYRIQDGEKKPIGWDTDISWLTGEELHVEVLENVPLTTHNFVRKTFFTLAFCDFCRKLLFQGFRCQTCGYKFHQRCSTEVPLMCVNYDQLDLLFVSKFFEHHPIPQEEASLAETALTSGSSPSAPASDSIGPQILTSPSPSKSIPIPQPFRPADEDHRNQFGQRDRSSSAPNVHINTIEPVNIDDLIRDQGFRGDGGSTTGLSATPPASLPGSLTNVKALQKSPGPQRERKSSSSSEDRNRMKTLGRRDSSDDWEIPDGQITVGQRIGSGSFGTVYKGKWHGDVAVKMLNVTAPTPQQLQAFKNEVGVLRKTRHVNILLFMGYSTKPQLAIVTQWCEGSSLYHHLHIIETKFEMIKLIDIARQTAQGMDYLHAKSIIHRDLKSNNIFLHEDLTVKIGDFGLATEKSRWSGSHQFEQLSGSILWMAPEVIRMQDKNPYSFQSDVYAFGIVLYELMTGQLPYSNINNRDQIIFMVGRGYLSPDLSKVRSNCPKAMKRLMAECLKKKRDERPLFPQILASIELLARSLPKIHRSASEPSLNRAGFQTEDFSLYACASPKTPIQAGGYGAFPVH

With `CCCS(=O)(=O)Nc1cc(Cl)cc(-c2nn(C(C)C)cc2-c2ccnc(NC[C@H](C)NC(=O)OC)n2)c1F` [Compound 1, Methyl N-[(2S)-1-[(4-{3-[5-chloro-2-fluoro-3-(propane-1-sulfonamido)phenyl]-1-(propan-2-yl)-1H-pyrazol-4-yl}pyrimidin-2-yl)amino]propan-2-yl]carbamate], the “ER Mouse” value in data set [1] is 0.79. Further, the “ER Human” value in data set [2] is reported as 0.66. The bioavailability at 24 h in data set [3] (setting [4]) was 46%. In data set [3], this compound had a clearance at 24 h of 7 mL/min/kg. In data set [3] (PO 5 mg/kg, n = 1), this compound gave an area under the curve (AUC) at 24 h of 9.7 µM·h and a Cmax at 24 h of 7400 nM.

Take `COC(=O)N[C@@H](C)CNc1nccc(-c2cn(C(C)C)nc2-c2cc(Cl)cc(NS(C)(=O)=O)c2)n1` [Compound 2, methyl N-[(2S)-1-({4-[3-(3-chloro-5-methanesulfonamidophenyl)-1-(propan-2-yl)-1H-pyrazol-4-yl]pyrimidin-2-yl}amino)propan-2-yl]carbamate]: on B-Raf V600E, the concentration for half-maximal inhibition (IC50) worked out at 0.8 nM.

As to `CCCS(=O)(=O)Nc1cccc(-c2nn(C(C)C)cc2-c2ccnc(NC[C@H](C)NC(=O)OC)n2)c1F` [Compound 3, methyl N-[(2S)-1-[(4-{3-[2-fluoro-3-(propane-1-sulfonamido)phenyl]-1-(propan-2-yl)-1H-pyrazol-4-yl}pyrimidin-2-yl)amino]propan-2-yl]carbamate], in data set [1], the “ER Mouse” value worked out at 0.85. In data set [2], the “ER Human” value is 0.69. This compound also showed a bioavailability at 24 h in data set [3] (setting [4]) of 6%. The clearance at 24 h in data set [3] came out at 51 mL/min/kg. In data set [3] (PO 5 mg/kg, n = 1), this compound came in with an AUC at 24 h of 0.2 µM·h and a Cmax at 24 h of 70 nM.

For the compound `CCCS(=O)(=O)Nc1cc(Cl)cc(-c2nn(C(C)C)cc2-c2ccnc(NC[C@H](C)NC(=O)OC)n2)c1` [Compound 5, methyl N-[(2S)-1-[(4-{3-[3-chloro-5-(propane-1-sulfonamido)phenyl]-1-(propan-2-yl)-1H-pyrazol-4-yl}pyrimidin-2-yl)amino]propan-2-yl]carbamate], the half-inhibitory concentration (IC50) at B-Raf V600E worked out at 0.2 nM.

For the compound `COC(=O)N[C@@H](C)CNc1nccc(-c2cn(C(C)C)nc2-c2c(F)ccc(NS(C)(=O)=O)c2F)n1` [Compound 6, methyl N-[(2S)-1-({4-[3-(2,6-difluoro-3-methanesulfonamidophenyl)-1-(propan-2-yl)-1H-pyrazol-4-yl]pyrimidin-2-yl}amino)propan-2-yl]carbamate], the “ER Human” value in data set [2] was determined as 0.69. Besides, the IC50 on B-Raf V600E stood at 3.9 nM. The bioavailability at 24 h in data set [3] (10 mg/kg, PO/IV 10/2 mg/kg) came out at 15 ± 3%. In addition, the clearance at 24 h in data set [3] was found to be 61 ± 6 mL/min/kg. In data set [3] (PO 10 mg/kg), this compound gave an AUC at 24 h of 1.1 ± 0.2 µM·h and a Cmax at 24 h of 600 ± 20 nM.

Turning to `COC(=O)N[C@@H](C)CNc1nccc(-c2cn(C(C)C)nc2-c2cc(F)cc(NS(C)(=O)=O)c2F)n1` [Compound 10, methyl N-[(2S)-1-({4-[3-(2,5-difluoro-3-methanesulfonamidophenyl)-1-(propan-2-yl)-1H-pyrazol-4-yl]pyrimidin-2-yl}amino)propan-2-yl]carbamate], the IC50 at B-Raf V600E was found to be 0.6 nM.

Regarding `CCn1cc(-c2ccnc(NC[C@H](C)NC(=O)OC)n2)c(-c2cc(Cl)cc(NS(C)(=O)=O)c2F)n1` [Compound 11, methyl N-[(2S)-1-({4-[3-(5-chloro-2-fluoro-3-methanesulfonamidophenyl)-1-ethyl-1H-pyrazol-4-yl]pyrimidin-2-yl}amino)propan-2-yl]carbamate], the IC50 at B-Raf V600E was 0.5 nM.

Take `COC(=O)N[C@@H](C)CNc1nccc(-c2cn(C(C)C)nc2-c2cc(F)cc(NS(C)(=O)=O)c2Cl)n1` [Compound 15, Methyl N-[(2S)-1-({4-[3-(2-chloro-5-fluoro-3-methanesulfonamidophenyl)-1-(propan-2-yl)-1H-pyrazol-4-yl]pyrimidin-2-yl}amino)propan-2-yl]carbamate]: the IC50 at B-Raf V600E turned out to be 1.1 nM.

In the case of `COC(=O)N[C@@H](C)CNc1nccc(-c2cn(C(C)C)nc2-c2ccnc(NS(C)(=O)=O)c2F)n1` [Compound 16, methyl N-[(2S)-1-({4-[3-(3-fluoro-2-methanesulfonamidopyridin-4-yl)-1-(propan-2-yl)-1H-pyrazol-4-yl]pyrimidin-2-yl}amino)propan-2-yl]carbamate], the IC50 on B-Raf V600E was 24 nM.

As for `COC(=O)N[C@@H](C)CNc1nccc(-c2cn(C(C)C)nc2-c2ccc(F)c(NS(C)(=O)=O)c2F)n1` [Compound 19, methyl N-[(2S)-1-({4-[3-(2,4-difluoro-3-methanesulfonamidophenyl)-1-(propan-2-yl)-1H-pyrazol-4-yl]pyrimidin-2-yl}amino)propan-2-yl]carbamate], the IC50 on B-Raf V600E turned out to be 6.1 nM.

`CCS(=O)(=O)Nc1c(F)ccc(-c2nn(C(C)C)cc2-c2ccnc(NC[C@H](C)NC(=O)OC)n2)c1F` [Compound 26, methyl N-[(2S)-1-({4-[3-(3-ethanesulfonamido-2,4-difluorophenyl)-1-(propan-2-yl)-1H-pyrazol-4-yl]pyrimidin-2-yl}amino)propan-2-yl]carbamate]: the IC50 on B-Raf V600E worked out at 1.7 nM.

In the case of `COC(=O)N[C@@H](C)CNc1nccc(-c2cn(C(C)C)nc2-c2cc(NS(C)(=O)=O)c(C)c(OC)c2)n1` [Compound 27], on B-Raf V600E, the IC50 was found to be 390 nM.

Consider `CC(C)n1cc(-c2ccnc(NCCN(C)C)n2)c(-c2cc(Cl)cc(NS(C)(=O)=O)c2F)n1` [Compound 28, N-{5-chloro-3-[4-(2-{[2-(dimethylamino)ethyl]amino}pyrimidin-4-yl)-1-(propan-2-yl)-1H-pyrazol-3-yl]-2-fluorophenyl}methanesulfonamide], for which the half-maximal inhibitory concentration (IC50) at B-Raf V600E was determined as 90 nM.

As for `CNc1nccc(-c2cn(C(C)C)nc2-c2cc(Cl)cc(NS(C)(=O)=O)c2F)n1` [Compound 29, N-(5-chloro-2-fluoro-3-{4-[2-(methylamino)pyrimidin-4-yl]-1-(propan-2-yl)-1H-pyrazol-3-yl}phenyl)methanesulfonamide], the IC50 at B-Raf V600E is 8 nM.

In the case of `CC(C)n1cc(-c2ccnc(N)n2)c(-c2cc(Cl)cc(NS(C)(=O)=O)c2F)n1` [Compound 30, N-{3-[4-(2-aminopyrimidin-4-yl)-1-(propan-2-yl)-1H-pyrazol-3-yl]-5-chloro-2-fluorophenyl}methanesulfonamide], the IC50 on B-Raf V600E came out at 4.3 nM.

On to `COC(=O)N[C@@H](C)CNc1nccc(-c2c[nH]nc2-c2cc(Cl)cc(NS(C)(=O)=O)c2F)n1` [Compound 31, Methyl N-[(2S)-1-({4-[3-(5-chloro-2-fluoro-3-methanesulfonamidophenyl)-1H-pyrazol-4-yl]pyrimidin-2-yl}amino)propan-2-yl]carbamate], for which, on B-Raf V600E, the IC50 came out at 0.8 nM.

As to `COC(=O)NC[C@H](C)Nc1nccc(-c2cn(C(C)C)nc2-c2cc(Cl)cc(NS(C)(=O)=O)c2F)n1` [Compound 32, Methyl N-[(2S)-2-({4-[3-(5-chloro-2-fluoro-3-methanesulfonamidophenyl)-1-(propan-2-yl)-1H-pyrazol-4-yl]pyrimidin-2-yl}amino)propyl]carbamate], at B-Raf V600E, the IC50 amounted to 2.9 nM.

As for `CCCS(=O)(=O)Nc1c(F)ccc(-c2nn(C(C)C)cc2-c2ccnc(NC[C@H](C)NC(=O)OC)n2)c1F` [Compound 34, methyl N-[(2S)-1-[(4-{3-[2,4-difluoro-3-(propane-1-sulfonamido)phenyl]-1-(propan-2-yl)-1H-pyrazol-4-yl}pyrimidin-2-yl)amino]propan-2-yl]carbamate], the IC50 on B-Raf V600E is 2.7 nM.

The bioavailability is dose-corrected exposure relative to a reference, in per cent. In general, clearance refers to the rate of elimination divided by the concentration. One may read the AUC as concentration integrated over time. A lower AUC goes with less exposure. The term Cmax denotes the highest concentration seen after dosing. By IC50 is commonly meant the point on the concentration scale where inhibition reaches its midpoint.

(Values after US9314464B2, “Compounds and compositions as protein kinase inhibitors” (Novartis AG, priority 2009, dated 2016).)
